Experimental data from paper PMC11470957, “Principles of paralog-specific targeted protein degradation engaging the C-degron E3 KLHDC2” (Nature Communications, 2024).
Several values for one entry are separate records, joined by “and”; a condition that tells them apart may be missing. Equal entries are not always repeated. Where two headings read alike, the source gives them in different places.

Key:
[1] = molecular target: BRD3 (Homo sapiens, UniProt Q15059); test: Western blot of BRD3 levels after cellular dosing
[2] = tested on: U2OS KLHDC2 KO/rescue and KO cells (proteome); test: TMT-based total proteomics of dosed U2OS cells; settings: 1 μM, 24 h
[3] = tested on: BD2 domain from BRD2, BRD3, or BRD4 / neddylated CRL2^KLHDC2; test: Pulse-chase PROTAC-dependent ubiquitylation of BRD BD2 domains by neddylated CRL2^KLHDC2; settings: prodrug tested
[4] = molecular target: BRD4 (Homo sapiens, UniProt O60885); test: Western blot of BRD4 levels after cellular dosing

Chain of BRD3 (Q15059 whole entry): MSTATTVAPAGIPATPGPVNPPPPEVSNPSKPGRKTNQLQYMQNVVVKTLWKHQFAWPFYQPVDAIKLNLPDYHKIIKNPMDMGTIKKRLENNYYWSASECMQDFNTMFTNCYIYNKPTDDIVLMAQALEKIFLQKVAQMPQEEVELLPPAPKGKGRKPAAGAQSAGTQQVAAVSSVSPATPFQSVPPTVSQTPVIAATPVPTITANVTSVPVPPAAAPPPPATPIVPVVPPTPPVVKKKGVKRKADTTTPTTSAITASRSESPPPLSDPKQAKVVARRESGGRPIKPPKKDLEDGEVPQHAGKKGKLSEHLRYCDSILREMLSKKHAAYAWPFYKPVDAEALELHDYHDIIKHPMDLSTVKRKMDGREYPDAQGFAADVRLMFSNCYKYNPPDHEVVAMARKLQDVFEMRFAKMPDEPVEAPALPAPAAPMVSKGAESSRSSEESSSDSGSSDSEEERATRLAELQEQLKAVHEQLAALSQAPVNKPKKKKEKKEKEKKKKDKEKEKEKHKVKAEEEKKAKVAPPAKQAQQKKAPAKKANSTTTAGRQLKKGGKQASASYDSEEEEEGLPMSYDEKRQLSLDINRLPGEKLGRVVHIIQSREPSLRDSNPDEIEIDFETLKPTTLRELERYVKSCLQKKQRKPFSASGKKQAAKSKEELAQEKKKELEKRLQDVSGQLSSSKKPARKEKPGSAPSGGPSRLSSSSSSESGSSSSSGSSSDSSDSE

## COC(=O)CNC(=O)Cc1csc(-c2ccc3cccc(OCCN4CCN(C(=O)C[C@@H]5N=C(c6ccc(Cl)cc6)c6c(sc(C)c6C)-n6c(C)nnc65)CC4)c3c2)n1 [SJ46420]
[1]; read-out: BRD3 Dmax, PC3, 24 h dose
  Dmax: 99.9%
[1]; read-out: BRD3 level, Western blot quantification (DMSO = 100), Fig 6b, KO/Rescue
  remaining activity at 5 µM: 105%
[1]; read-out: BRD3 level, Western blot quantification (DMSO = 100), Fig 6c, 1 uM
  remaining activity at 1 µM: 43.9%
[1]; read-out: BRD3 level, Western blot quantification (DMSO = 100), Fig 6d, 1 uM
  remaining activity at 1 µM: 19%
[1]; read-out: BRD3 level, Western blot quantification (DMSO = 100), Fig 6d, 1uM together with 1uM MLN4924
  remaining activity at 1 µM: 120%
[1]; read-out: BRD3 level, Western blot quantification (DMSO = 100), Fig S6e, PC3 KO/rescue Dose Response, 0.625 uM
  remaining activity at 0.625 µM: 47.6%
[1]; read-out: BRD3 level, Western blot quantification (DMSO = 100), Fig S6e, PC3 KO/rescue Dose Response, 1.25 uM
  remaining activity at 1.25 µM: 11.4%
[1]; read-out: BRD3 level, Western blot quantification (DMSO = 100), Fig S6e, PC3 KO/rescue Dose Response, 2.5 uM
  remaining activity at 2.5 µM: 0.66%
[1]; read-out: BRD3 level, Western blot quantification (DMSO = 100), Fig S6e, PC3 KO/rescue Dose Response
  remaining activity at 5 µM: 0.34%
[1]; read-out: BRD3 level, Western blot quantification (DMSO = 100), Fig S6e, PC3 KO/rescue Dose Response, 10uM
  remaining activity at 10 µM: 0.161%
[1]; wild-type U2OS, 24 h dose, Fig 6b
  BRD degradation activity in U2OS cells: efficiently and selectively targeted BRD3 for degradation
[2]; KO/rescue U2OS cells
  change of protein levels by TMT proteomics: BRD3 was most substantially downregulated, with lesser reductions in the levels of BRD4 and BRD2
[2]; U2OS KLHDC2 KO cells
  change of protein levels by TMT proteomics: not observed
[3]
  ubiquitylation of BRD3BD2 in reconstituted biochemical assays: unable to promote ubiquitylation
[4]; 22Rv1, 0.16µM, 24 h, Fig S6f
  BRD4 level relative to DMSO (100%): 105 +/- 5.8%
[4]; 22Rv1, 0.63µM, 24 h, Fig S6f
  BRD4 level relative to DMSO (100%): 101 +/- 7.2%
[4]; 22Rv1, 1.3µM, 24 h, Fig S6f
  BRD4 level relative to DMSO (100%): 89 +/- 2.9%
[4]; 22Rv1, 2.5µM, 24 h, Fig S6f
  BRD4 level relative to DMSO (100%): 88 +/- 11%
[4]; 22Rv1, 5µM, 24 h, Fig S6f
  BRD4 level relative to DMSO (100%): 83 +/- 10%
[4]; 22Rv1, 10µM, 24 h, Fig S6f
  BRD4 level relative to DMSO (100%): 68 +/- 15%
[4]; 22Rv1, read-out: BRD4 Dmax, 22Rv1, 24 h dose
  Dmax: 30%
[4]; 293T, 2.5µM, 24 h, Fig S6a
  BRD4 level relative to DMSO (100%): 98 +/- 5.3%
[4]; 293T, 5µM, 24 h, Fig S6a
  BRD4 level relative to DMSO (100%): 79 +/- 6.6%
[4]; AU565, 0.2µM, 8 h, Fig S6c
  BRD4 level relative to DMSO (100%): 82 +/- 4.7%
[4]; AU565, 1µM, 8 h, Fig S6c
  BRD4 level relative to DMSO (100%): 53 +/- 5.1%
[4]; AU565, 5µM, 8 h, Fig S6c
  BRD4 level relative to DMSO (100%): 4.1 +/- 1.3%
[4]; Fig 6b, KO/Rescue, 5 uM
  BRD4 level, Western blot quantification (DMSO = 100): 91.0765 and 107.689
[4]; Fig 6b, U2OS, 5 uM
  BRD4 level, Western blot quantification (DMSO = 100): 77.4849 and 71.6749
[4]; Fig 6c, 1 uM
  BRD4 level, Western blot quantification (DMSO = 100): 92.7102 and 86.955
[4]; Fig 6d, 1 uM
  BRD4 level, Western blot quantification (DMSO = 100): 67.4942 and 82.9736
[4]; Fig 6d, 1uM together with 1uM MLN4924
  BRD4 level, Western blot quantification (DMSO = 100): 118.408 and 100.267
[4]; Fig S6a, 293T cells, 2.5 uM
  BRD4 level, Western blot quantification (DMSO = 100): 94.5347 and 102.135
[4]; Fig S6a, 293T cells, 5 uM
  BRD4 level, Western blot quantification (DMSO = 100): 74.6014 and 84.7353
[4]; Fig S6b, MDA-MB468 Cells, 2 uM
  BRD4 level, Western blot quantification (DMSO = 100): 86.0887 and 95.6433
[4]; Fig S6b, MDA-MB468 Cells, 5 uM
  BRD4 level, Western blot quantification (DMSO = 100): 75.9577 and 82.1258
[4]; Fig S6b, MDA-MB468 Cells, 10 uM
  BRD4 level, Western blot quantification (DMSO = 100): 65.8655 and 71.3135
[4]; Fig S6c, AU565 Cells, 0.2 uM
  BRD4 level, Western blot quantification (DMSO = 100): 78.2951 and 85.4236
[4]; Fig S6c, AU565 Cells, 1 uM
  BRD4 level, Western blot quantification (DMSO = 100): 49.0527 and 56.2352
[4]; Fig S6c, AU565 Cells, 5 uM
  BRD4 level, Western blot quantification (DMSO = 100): 3.1923 and 5.662
[4]; Fig S6e, PC3 KO/rescue Dose Response, 0.156 uM
  BRD4 level, Western blot quantification (DMSO = 100): 98.9143 and 85.6296
[4]; Fig S6e, PC3 KO/rescue Dose Response, 0.313 uM
  BRD4 level, Western blot quantification (DMSO = 100): 95.5722 and 70.9157
[4]; Fig S6e, PC3 KO/rescue Dose Response, 0.625 uM
  BRD4 level, Western blot quantification (DMSO = 100): 77.9263 and 60.6542
[4]; Fig S6e, PC3 KO/rescue Dose Response, 1.25 uM
  BRD4 level, Western blot quantification (DMSO = 100): 36.0358 and 57.3958
[4]; Fig S6e, PC3 KO/rescue Dose Response, 2.5 uM
  BRD4 level, Western blot quantification (DMSO = 100): 28.2357 and 25.3138
[4]; Fig S6e, PC3 KO/rescue Dose Response, 5 uM
  BRD4 level, Western blot quantification (DMSO = 100): 3.953 and 2.975
[4]; Fig S6e, PC3 KO/rescue Dose Response, 10uM
  BRD4 level, Western blot quantification (DMSO = 100): 0.3603 and 0.6573
[4]; Fig S6f, 22RV1 KO/rescue Dose Response, 0.156 uM
  BRD4 level, Western blot quantification (DMSO = 100): 101.401 and 109.713
[4]; Fig S6f, 22RV1 KO/rescue Dose Response, 0.313 uM
  BRD4 level, Western blot quantification (DMSO = 100): 109.261 and 111.474
[4]; Fig S6f, 22RV1 KO/rescue Dose Response, 0.625 uM
  BRD4 level, Western blot quantification (DMSO = 100): 106.365 and 96.1732
[4]; Fig S6f, 22RV1 KO/rescue Dose Response, 1.25 uM
  BRD4 level, Western blot quantification (DMSO = 100): 91.1283 and 87.0112
[4]; Fig S6f, 22RV1 KO/rescue Dose Response, 2.5 uM
  BRD4 level, Western blot quantification (DMSO = 100): 95.8637 and 80.8873
[4]; Fig S6f, 22RV1 KO/rescue Dose Response, 5 uM
  BRD4 level, Western blot quantification (DMSO = 100): 91.3116 and 76.191
[4]; Fig S6f, 22RV1 KO/rescue Dose Response, 10uM
  BRD4 level, Western blot quantification (DMSO = 100): 79.6577 and 57.9117
[4]; Fig S6g, SKBR3 Time course, 1 uM, 2hr
  BRD4 level, Western blot quantification (DMSO = 100): 104.311 and 100.652
